The values that follow come from US20240391880A1, “KCa3.1 INHIBITORS FOR PODOCYTE PROTECTION” (Icahn School of Medicine at Mount Sinai, priority 2021, published 2024).

One assay relates to YAP knockdown podocytes. Put plainly: Rescue of YAP knockdown podocyte morphology (phalloidin/paxillin staining). In kind it is cell-based, mouse.
The subject of the next assay is podocytes. The assay is described as follows: LPS-induced podocyte injury in vitro. In kind it is cell-based, mouse. The following applies: LPS 100 μg/ml for 24 hrs, co-treatment. The method, then: (§1) The ability of KCa3.1 inhibitors to protect from podocyte injury induced by lipopolysaccharide (LPS) was tested in vitro and in vivo. […] The protective effect was tested in vivo by administering LPS to 8-week old C57BL/6J mice at 0 hr and 24 hrs.
Differentiated podocytes were exposed to different doses of LPS (50-100 μg/ml) for 24 hours. Changes in the organization of the actin cytoskeleton were assessed by phalloidin staining and paxillin staining as described previously. Each set of experiments was repeated at least three times. Briefly, cells were fixed with 4% PFA, 4% sucrose in PBS at room temperature for 15 minutes and then permeabilized with 0.3% Triton X-100 in PBS with washes in between. Coverslips were washed 3× with PBS and incubated blocking solution (2% FCS, 2% BSA, 0.2% fish gelatin) for 30 minutes at room temperature before further incubation with one of the primary antibodies for 1 hour at room temperature. For double labeling, sections were washed three times with PBS for 5 minutes, and the second primary antibody was applied for 60 minutes. Antigen-antibody complexes were visualized with secondary antibodies 1:500 (Life Technologies) conjugated with fluorochrome (Alexa 488, Alexa 594, or Alexa 647) for 1 hour at room temperature. For stress fibers, phalloidin-rhodamine was used. For the nuclei, we used DAPI. Confocal microscopy with Leica DMI was done.

The test system of a further assay is C57BL/6J mice. The assay is described as follows: LPS-induced glomerular disease in mice. Type of assay: in vivo, mouse. The settings on record: for albuminuria: 48 hours after LPS injection, compound given at 12 hr and 24 hr. The protocol: as §1
Albuminuria was qualitatively screened using a 10% SDS-PAGE gel followed by Coomassie-blue staining. BSA standards of 0.1, 0.5, 5 μg were used and 5 μl urine was used from each sample to quantify urine albumin in duplicate using commercial kits, according to the manufacturer's protocol (mouse albumin ELISA, Bethyl Laboratories).

In assay [1] the target is T1, KCa3.1 (Homo sapiens, UniProt O15554).
T1 construct: expressed in transfected cells; host or cells: immortalized mouse podocytes (KCNN4 OE)
The assay is described as follows: Whole-cell patch clamp electrophysiology in KCNN4 overexpression podocytes. In kind it is cell-based, mouse. The settings on record: KCNN4 OE podocytes. The method, then:
(§2) Cells plated on coverslips are transferred to a submersion recording chamber and continuously perfused (2-4 ml/min) with RPMI cell culture medium containing (in mM): NaCl 124, KCl 2.5, NaH2PO4 1.2, NaHCO3 24, HEPES 5, glucose 12.5, MgSO4 2, and CaCl2 2, pH 7.4. The solution is continuously bubbled with 95% O2/5% CO2, and recordings are obtained at 25±1° C. Cells are recorded under infrared differential contrast optics (BX51; Olympus). After control readings are measured, the solution is then switched to the solutions containing the molecules. […] Recording pipettes (3-5 MΩ), pulled from borosilicate glass, are filled with internal solution containing (in mM): K gluconate 120, HEPES 10, KCl 20, MgCl2 1, MgATP 2, Na2GTP 0.5, Na-phosphocreatine 10, CaCl2 1.71 and EGTA 2, pH 7.25. Data are acquired with a Multiclamp 700 A amplifier (Molecular Devices), subsequently filtered at 10 kHz and digitized at 10 kHz, and analysis is performed with pClamp 11 software (Molecular Devices). Whole-cell data will be collected. All data will be recorded at room temperature.

Another assay has as its system YAP KD podocytes. The assay is described as follows: Intracellular calcium dynamics in YAP KD podocytes (Fluo-3, ATP stimulation). In kind it is cell-based, mouse. The following applies: for CaD50 / time to peak of calcium uptake: YAP silenced podocytes, upon ATP stimulation. The protocol:
Intracellular calcium dynamics were measured in wild type and YAP KD podocytes loaded with Fluo-3, stimulated with ATP ([…]) and imaged for 3 minutes at 1 frame per 0.5 seconds on a high-speed Zeiss 880 laser scanning confocal microscope with automated CO2incubator stage.
Isolated cells were superfused with Tyrode solution containing (mm): NaCl 140, KCl
5, Hepes 5, NaH2PO4 1, MgCl2 1, CaCl2 1.8, glucose 10 (pH 7.4). To allow for confocal imaging of [Ca^2+]i, cells were loaded for 30 min with 5 μm fluo-3 AM (Molecular Probes, Eugene, OR, USA), then washed and stored for 20 min in Tyrode solution to enable dye de-esterification. Confocal imaging in line-scan mode was performed on a Zeiss 510 microscope. Cells were scanned with light at 488 nm from an argon-ion laser, and fluorescence above 505 nm was recorded. To generate repeated Ca^2+ sparks at a limited number of locations, 50 nm ryanodine (Calbiochem, San Diego, CA, USA) was added to the external solution.

In assay [2] the target is T2, KCa3.1 (Mus musculus, UniProt O89109).
T2 construct: endogenous in cells; host or cells: YAP shRNA (YAP KD) conditionally immortalized mouse podocytes
Put plainly: Whole-cell patch clamp electrophysiology in YAP silenced podocytes. Type of assay: cell-based. The protocol: as §2

Where [3] appears, read: expected K+ equilibrium (VK) calculated at -83 mV.

Entries after “also recorded” stand apart in the source; their conditions may differ.

Description for YAP knockdown podocytes: Podocytes were cultured as previously described (2, 14, 35). Briefly, conditionally immortalized murine podocytes were cultured in Dulbecco's modified Eagle's medium (DMEM; Life Technologies) supplemented with 10% heat-inactivated fetal bovine serum (Life Technologies) and 100 U/mL penicillin-streptomycin (Life Technologies) on type I collagen (Corning, Corning, NY) coated dishes or flasks. Undifferentiated podocytes were maintained at 33° C. in the presence of 10 U/mL mouse γ-interferon (Cell Sciences, Canton, MA) to drive T-antigen expression. To induce differentiation, podocytes were thermo-shifted to a 37° C. incubator and switched to medium lacking γ-interferon.
The pLKO.1 plasmids (YAP shRNA or control shRNA) along with the helper plasmids psPAX^2 and pMD2.G were transfected into HEK293T cells at 70% confluence using FuGENE 6 (Promega). Medium was replaced 16-18 h after transfection. 36 and 60 h after transfection, virus-containing supernatants were harvested and centrifuged at 3,000 rpm for 5 min. Viral particles were then passed through a 0.45-μm filter. The supernatants were subsequently used for the infection of target cells in the presence of 4 μg/ml Polybrene (Sigma). […]
Changes in the organization of the actin cytoskeleton were assessed by phalloidin staining and paxillin staining as described previously. […]

As for `Brc1ccccc1-c1nc2ccccc2[nH]1` [BT563, 2-(2-bromophenyl)-1H-benzo[d]imidazole], the “rescue from focal adhesion loss and F-actin reorganization” value in the assay with YAP knockdown podocytes was “most consistently rescued”. In the assay with podocytes, the “LPS-induced actin cytoskeletal reorganization and loss of focal adhesions” value is “abrogated”. For the same molecule, the albuminuria entry with C57BL/6J mice is reported as “statistically significant decrease; also recorded: decreased albuminuria”. Further, the “foot process injury (scanning EM)” value in the assay with C57BL/6J mice (LPS treated mice) is reported as “not seen; also recorded: rescue of LPS-induced podocyte foot process disruption”. In addition, on KCa3.1 [1], the KCa3.1 conductance result is “decreased KCa3.1 conductance”. The stimuli to peak entry with YAP KD podocytes (YAP knockdown cells, 5uM and 10 uM) is given as “significantly decreased”. In addition, in the assay with YAP KD podocytes, the CaD50 entry is “decreased” and the “time to peak of calcium uptake” value is “decreased”. The KCa3.1 conductance result on KCa3.1 [2] is recorded as “decreased KCa3.1 conductance”. The “crossover potential of before and after I-V plots” value at KCa3.1 [2] (setting [3]) is “closer to the expected K+ equilibrium (VK)”.
Take `Cc1ccn2cc(-c3ccccc3)nc2c1` [BT564, 7-methyl-2-phenylimidazo[1,2-α]pyridine]: the “rescue from focal adhesion loss and F-actin reorganization” value with YAP knockdown podocytes was “most consistently rescued”. Moreover, the “LPS-induced actin cytoskeletal reorganization and loss of focal adhesions” value with podocytes is on record as “abrogated”. For the same molecule, the albuminuria result with C57BL/6J mice is recorded as “not”. For the same molecule, the KCa3.1 conductance result at KCa3.1 [1] was “decreased KCa3.1 conductance”. In the assay with YAP KD podocytes, the CaD50 entry is given as “decreased” and the “time to peak of calcium uptake” value was “decreased”. For the same molecule, the KCa3.1 conductance result on KCa3.1 [2] is “decreased KCa3.1 conductance”.
Take `Cc1cc2nc(N)oc2c2ccccc12` [SKA121, reference compound]: the KCa3.1 conductance entry on KCa3.1 [1] and on KCa3.1 [2] was “enhanced” each time.
Consider `Clc1ccccc1C(c1ccccc1)(c1ccccc1)n1cccn1` [TRAM-34, reference compound], for which the KCa3.1 conductance entry on KCa3.1 [1] is “decreased”. Moreover, the “crossover potential of before and after I-V plots” value at KCa3.1 [1] (setting [3]) is recorded as “did cross at the expected K+ equilibrium”. Moreover, in the assay with YAP KD podocytes, the CaD50 result is “decreased” and the “time to peak of calcium uptake” value is “decreased”. Further, at KCa3.1 [2], the KCa3.1 conductance result was “decreased”.
